Experimental data: paper PMC9403976, “Elucidating the path to Plasmodium prolyl-tRNA synthetase inhibitors that overcome halofuginone resistance” (Nature Communications, 2022)
Several values for one entry are separate records, joined by “and”; a condition that tells them apart may be missing. Equal values may be shown once. Read-outs that look alike come from different tables or passages of the source. Marks after values point to notes of the source that are not given here.

Legend:
[1] = tested on: halofuginone-induced P. falciparum (elevated proline homeostasis); experiment: P. falciparum ABS growth assay, SYBR Green, 72 h, halofuginone-induced parasites; assay type: cell-based, Plasmodium falciparum
Method in brief: (§1)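 EC50 came from SYBR Green 1 fluorescence measured 72 h after dosing in triplicate dose-response. Dihydroartemisinin at 10 μM set full kill and untreated wells set full growth. Cultures of the Dd2 lines were seeded at 1% hematocrit and 1% parasitemia in Albumax-supplemented RPMI.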

[2] = target: T1, PfcProRS (Plasmodium falciparum, UniProt Q8I5R7); assay type: binding; details: for Normalized response, dose-response replicates (SI Fig 14): replicates 1-3, listed as MAT334 (29)
T1 construct: made in house; host or cells: E. coli SoluBL-21

[3] = target: HsProRS (Homo sapiens, UniProt P07814); experiment: TR-FRET ligand displacement assay with tracer MAT379 (CoraFluor-1-Halo and anti-His6 antibody formats); assay type: binding; design: made in house; host or cells: E. coli SoluBL-21; details: 250 nM MAT379
[4] = tested on: P. falciparum Dd2-2D4; experiment: P. falciparum asexual blood stage (ABS) growth assay, SYBR Green, 72 h, wild-type parasites; assay type: cell-based, Plasmodium falciparum
[5] = tested on: HFGR-I P. falciparum (elevated proline homeostasis and PfcProRS^L482H); experiment: P. falciparum ABS growth assay, SYBR Green, 72 h, HFGR-I parasites; assay type: cell-based, Plasmodium falciparum
Method in brief: as §1

[6] = 10 μM, compound had <50% inhibition

T1 sequence (Q8I5R7 249-746): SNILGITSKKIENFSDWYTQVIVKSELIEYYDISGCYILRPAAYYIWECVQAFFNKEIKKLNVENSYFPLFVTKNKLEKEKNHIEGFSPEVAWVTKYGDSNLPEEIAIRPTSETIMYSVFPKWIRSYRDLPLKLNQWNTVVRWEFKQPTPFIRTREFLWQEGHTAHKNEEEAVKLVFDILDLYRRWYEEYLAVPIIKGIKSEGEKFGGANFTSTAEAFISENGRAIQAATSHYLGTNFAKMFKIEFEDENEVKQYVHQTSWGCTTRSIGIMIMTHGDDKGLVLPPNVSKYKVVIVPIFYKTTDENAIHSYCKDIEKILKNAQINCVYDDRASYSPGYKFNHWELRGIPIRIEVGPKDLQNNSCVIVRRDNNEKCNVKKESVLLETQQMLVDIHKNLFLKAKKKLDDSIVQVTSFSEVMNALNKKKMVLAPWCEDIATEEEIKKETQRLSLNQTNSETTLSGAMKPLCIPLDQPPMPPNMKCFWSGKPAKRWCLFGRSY
HsProRS, sequence (P07814 996-1512): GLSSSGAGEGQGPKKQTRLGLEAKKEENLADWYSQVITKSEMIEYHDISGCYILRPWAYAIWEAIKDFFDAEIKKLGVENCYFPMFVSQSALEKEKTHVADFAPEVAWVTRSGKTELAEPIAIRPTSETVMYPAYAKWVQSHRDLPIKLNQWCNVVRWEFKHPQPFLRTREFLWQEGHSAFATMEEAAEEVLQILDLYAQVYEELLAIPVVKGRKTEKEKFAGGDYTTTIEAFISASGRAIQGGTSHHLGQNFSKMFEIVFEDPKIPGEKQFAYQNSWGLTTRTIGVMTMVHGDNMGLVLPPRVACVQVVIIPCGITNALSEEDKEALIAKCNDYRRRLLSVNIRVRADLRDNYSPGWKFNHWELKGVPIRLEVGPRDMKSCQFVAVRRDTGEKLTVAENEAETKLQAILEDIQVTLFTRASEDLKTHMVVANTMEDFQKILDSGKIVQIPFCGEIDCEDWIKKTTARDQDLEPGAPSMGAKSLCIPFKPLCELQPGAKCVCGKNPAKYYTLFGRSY

`O=C(NC1Cc2ccccc2C1)c1nccnc1NC(=O)N1CCC(NC(=O)[C@@H]2CCCN2)CC1` [MAT334] was tested, and the “percent growth at 10 μM, Dd2 Halofuginone-induced” value [1, 6] was 59%^b, the EC50 ([1]; Plasmodium falciparum, DD2, halofuginone-induced, bound given in μM, read-out: Dd2 EC50 halofuginone-induced, bound) was greater than 10 µM and the “% signal at 10 μM, halofuginone-induced” value ([1]; halofuginone-induced, 10 μM) was 58.7%. The “fold decreased activity in halofuginone-induced and HFGR-I parasites” value ([1]; vs wild-type Dd2-2D4) was 20-to-40 fold, the “Normalized response, dose-response replicates (SI Fig 14)” value (shortened to “Normalized response”) ([2]; Log[inhibitor] (M) -5.000) was 2.08E-01 and 3.63E-01 and 3.19E-01 and the “Normalized response” value ([2]; Log[inhibitor] (M) -5.301) was 5.18E-01 and 3.74E-01 and 4.21E-01. For the same molecule, the “Normalized response” value ([2]; Log[inhibitor] (M) -5.601) was 6.67E-01 and 7.40E-01 and 6.08E-01, the “Normalized response” value ([2]; Log[inhibitor] (M) -5.904) was 7.68E-01 and 7.75E-01 and 6.45E-01 and the “Normalized response” value ([2]; Log[inhibitor] (M) -6.208) was 8.81E-01 and 8.94E-01 and 8.19E-01. For the same molecule, the “Normalized response” value ([2]; Log[inhibitor] (M) -6.509) was 8.78E-01 and 9.77E-01 and 9.06E-01, the “Normalized response” value ([2]; Log[inhibitor] (M) -6.796) was 9.44E-01 and 9.68E-01 and 8.61E-01 and the “Normalized response” value ([2]; Log[inhibitor] (M) -7.108) was 1.02E+00 and 1.01E+00 and 1.00E+00. The “Normalized response” value ([2]; Log[inhibitor] (M) -7.409) was 9.75E-01 and 1.05E+00 and 9.17E-01, the “Normalized response” value ([2]; Log[inhibitor] (M) -7.710) was 9.99E-01 and 1.04E+00 and 9.29E-01 and the “Normalized response” value ([2]; Log[inhibitor] (M) -8.000) was 9.48E-01 and 9.82E-01 and 1.03E+00. The “Normalized response” value ([2]; Log[inhibitor] (M) -8.301) was 1.01E+00 and 1.09E+00 and 9.01E-01, the “Normalized response” value ([2]; Log[inhibitor] (M) -8.602) was 8.97E-01 (2×) and 1.09E+00 and the “Normalized response” value ([2]; Log[inhibitor] (M) -9.000) was 9.02E-01 and 9.67E-01 and 1.03E+00. For the same molecule, the “Normalized response” value ([2]; Log[inhibitor] (M) -9.301) was 8.06E-01 and 9.62E-01 and 9.06E-01, the “PfcProRS -- best Kd” value ([2]; SI Fig 16a, values on -log scale) was 6.180 and the Kd ([3]; HsProRS (KD [nM]) + proline, 100 μM proline) was 2130 nM. The Kd ([3]; HsProRS (KD [nM]) −, absence of substrates) was 2110 nM, the “percent growth at 10 μM, Dd2 wt” value [4, 6] was 76%^b and the EC50 ([4]; Plasmodium falciparum, wildtype (Dd2-2D4), bound given in μM, read-out: Dd2 EC50 wildtype (Dd2-2D4), bound) was greater than 10 µM. The “% signal at 10 μM, wildtype (Dd2-2D4)” value ([4]; wildtype (Dd2-2D4), 10 μM) was 75.7%, the “percent growth at 10 μM, Dd2 HFGR-I” value [5, 6] was 66%^b and the “% signal at 10 μM, HFGR1” value ([5]; HFGR1, 10 μM) was 66.0%. For the same molecule, the EC50 ([5]; Plasmodium falciparum, DD2, HFGR1, bound given in μM, read-out: Dd2 EC50 HFGR1, bound) was greater than 10 µM.
